SMILES strings stand for the structures. Some results are limits rather than exact numbers.

This passage reports inhibition and melting point results from patent publication US8623902B2, “Microbiocides” (Syngenta Crop Protection, LLC, priority 2008, dated 2014).

Data set [1] relates to Puccinia recondita. The data set can be described thus: Protective action against Puccinia recondita (brown rust) on wheat. The format is in vivo. To be noted: foliar, 192 h, wheat leaf segments sprayed with 0.02% active ingredient, assessed 8 days after inoculation, read-out: preventive fungicidal activity (inhibition). The method, then:
Protective Action Against Puccinia recondita (Brown Rust) on Wheat Wheat leaf segments are placed on agar in multiwell plates (24-well format) and sprayed with test solutions (0.02% active ingredient). After drying, the leaf disks are inoculated with a spore suspension of the fungus. After appropriate incubation the activity of a compound is assessed 8 days after inoculation as preventive fungicidal activity.

The subject of a further data set is Septoria tritici. The data set can be described thus: Action against Septoria tritici - fungal growth assay. The format is cell-based. To be noted: Zymoseptoria tritici; 0.002% active ingredient, PDB broth, 24° C., photometric after 72 hrs. The method, then: (§1) Action Against Septoria tritici—Fungal Growth Assay Conidia of the fungus from cryogenic storage are directly mixed into nutrient broth (PDB potato dextrose broth). After placing a (DMSO) solution of the test compounds (0.002% active ingredient) into a microtiter plate (96-well format) the nutrient broth containing the fungal spores is added. The test plates are incubated at 24° C. and the inhibition of growth is determined photometrically after 72 hrs. The activity of a compound is expressed as fungal growth inhibition (0=no growth inhibition, ratings of 80% to 99% mean good to very good inhibition, 100%=complete inhibition).

The test system of data set [2] is Erysiphe graminis f.sp. tritici. The data set can be described thus: Action against Erysiphe graminis f.sp. tritici (wheat powdery mildew), wheat leaf segments. The format is in vivo. The following applies: Blumeria graminis, foliar, 168 h; wheat leaf segments sprayed with 0.02% active ingredient, assessed 7 days after inoculation; read-out: preventive fungicidal activity (inhibition). Here is the method: Action Against Erysiphe graminis f.sp. tritici (Wheat Powdery Mildew) Wheat leaf segments are placed on agar in multiwell plates (24-well format) and sprayed with test solutions (0.02% active ingredient). After drying, the leaf disks are inoculated with a spore suspension of the fungus. After appropriate incubation the activity of a compound is assessed 7 days after inoculation as preventive fungicidal activity.

In data set [3] the test system is Monographella nivalis (anamorph: Fusarium nivale, Microdochium nivale; snow mould). Kind of data set: Action against Monographella nivalis - fungal growth assay. The format is cell-based. To be noted: 0.002% active ingredient, PDB broth, 24° C., photometric after 72 hrs. Here is the method: as §1, with “Monographella nivalis (Anamorph: Fusarium nivale, Microdochium nivale; Snow Mould)—Fungal” for “Septoria tritici—Fungal”, “DMSO-solution” for “(DMSO) solution”, “measured” for “determined”, “hrs” for “hrs. The activity of a compound is expressed as fungal growth inhibition”

Data set [4] concerns Puccinia recondita. Kind of data set: Curative action against Puccinia recondita (brown rust) on wheat. The format is in vivo. The following applies: foliar, wheat leaf segments sprayed with 0.02% active ingredient one day after inoculation, assessed 8 days after inoculation, read-out: curative fungicidal activity (inhibition). The method, then:
Curative Action Against Puccinia recondita (Brown Rust) on Wheat Wheat leaf segments are placed on agar in multiwell plates (24-well format) and inoculated with a spore suspension of the fungus. One day after inoculation the leaf segments are sprayed with test solutions (0.02% active ingredient). After appropriate incubation the activity of a compound is assessed 8 days after inoculation as curative fungicidal activity.

For the next data set, the system named is Botrytis cinerea. The data set can be described thus: Action against Botrytis cinerea - fungal growth assay. To be noted: 0.002% active ingredient, PDB broth, 24° C., photometric after 3-4 days. The format is cell-based. The method, then:
as §1, with “Botrytis cinerea—Fungal” for “Septoria tritici—Fungal”, “measured” for “determined”, “3-4 days.” for “72 hrs.”

The next data set relates to Pyrenophora teres. Kind of data set: Action against Pyrenophora teres (net blotch) on barley. Format: in vivo. The following applies: foliar, 96 h, barley leaf segments sprayed with 0.02% active ingredient, assessed 4 days after inoculation, read-out: preventive fungicidal activity (inhibition). The method, then:
Action Against Pyrenophora teres (Net Blotch) on Barley Barley leaf segments are placed on agar in multiwell plates (24-well format) and sprayed with test solutions (0.02% active ingredient). After drying, the leaf disks are inoculated with a spore suspension of the fungus. After appropriate incubation the activity of a compound is assessed 4 days after inoculation as preventive fungicidal activity.

Data set [5] relates to Mycosphaerella arachidis (early leaf spot of groundnut; Cercospora arachidicola [anamorph]). Kind of data set: Action against Mycosphaerella arachidis - fungal growth assay. Format: cell-based. The following applies: 0.002% active ingredient, PDB broth, 24° C., photometric after 6-7 days. The method, then: as §1, with “Mycosphaerella arachidis (Early Leaf Spot of Groundnut; Cercospora arachidicola [anamorph])—Fungal” for “Septoria tritici—Fungal”, “measured” for “determined”, “6-7 days.” for “72 hrs.”

The next data set has as its system Rhizoctonia solani. The data set can be described thus: Action against Rhizoctonia solani - fungal growth assay. The format is cell-based. The following applies: 0.002% active ingredient, PDB broth, 24° C., photometric after 3-4 days. The method, then: as §1, with “Rhizoctonia solani—Fungal” for “Septoria tritici—Fungal”, “Mycelial fragments of a newly grown liquid culture” for “Conidia”, “fungus” for “fungus from cryogenic storage”, “measured” for “determined”, “3-4 days.” for “72 hrs.”

The test system of data set [6] is Leptosphaeria nodorum (Septoria nodorum). The data set can be described thus: Action against Leptosphaeria nodorum (Septoria nodorum; glume blotch) on wheat. The format is in vivo. The following applies: Parastagonospora nodorum, foliar, 96 h; wheat leaf segments sprayed with 0.02% active ingredient, assessed 4 days after inoculation; read-out: preventive fungicidal activity (inhibition). Here is the method: Action Against Leptosphaeria nodorum (Septoria nodorum; Glume Blotch) on Wheat Wheat leaf segments are placed on agar in multiwell plates (24-well format) and sprayed with test solutions (0.02% active ingredient). After drying, the leaf disks are inoculated with a spore suspension of the fungus. After appropriate incubation the activity of a compound is assessed 4 days after inoculation as preventive fungicidal activity.

In the case of `Cn1cc(C(=O)N2CCC[C@H]2COc2c(Cl)cc(Cl)cc2Cl)c(C(F)F)n1` [Compound 1.006], the inhibition (commonly the percentage by which the read-out fell short of the control) at 0.02 % strength with Puccinia recondita [1] is at least 80%; in data set [2], at least 80%; in the data set with Puccinia recondita [4], at least 80%; with Pyrenophora teres, at least 80%; in [6] it was at least 50%. Moreover, the inhibition at 0.002 % strength in the data set with Septoria tritici is at least 80%; in data set [3], at least 50%; in the data set with Botrytis cinerea, at least 80%; in data set [5] it was at least 80%; in the data set with Rhizoctonia solani, at least 50%.

Consider `CO/N=C/c1cc(Cl)c(OC[C@@H]2CCCN2C(=O)c2cn(C)nc2C(F)F)c(Cl)c1` [Compound 1.021, 3,5-dichloro-4-[(S)-1-(3-difluoromethyl-1-methyl-1H-pyrazole-4-carbonyl)-pyrrolidin-2-ylmethoxy]-benzaldehyde O-methyl-oxime], for which the inhibition at 0.02 % strength in the data set with Puccinia recondita [1] and in the data set with Pyrenophora teres was at least 80% in each case. Further, the inhibition at 0.002 % strength in the data set on Septoria tritici is at least 80%; in the data set on Botrytis cinerea it was at least 80%; in data set [5] it was at least 80%; in the data set with Rhizoctonia solani, at least 50%.

On to `Cc1cccc(C)c1OC[C@@H]1CCCN1C(=O)c1cn(C)nc1C(F)F` [Compound 1.068], for which the melting point (as a rule, the temperature of the solid-liquid transition) lay within 137 to 140 °C. The inhibition at 0.02 % strength in the data set on Puccinia recondita [1] is at least 80%. Further, the inhibition at 0.002 % strength in the data set with Septoria tritici was at least 80%. Also, the inhibition at 0.02 % strength in data set [2] is at least 80%. Besides, the inhibition at 0.02 % strength in the data set on Puccinia recondita [4] is at least 80%. In the data set on Botrytis cinerea, this compound displayed an inhibition at 0.002 % strength of at least 80%. For the same compound, the inhibition at 0.02 % strength in the data set on Pyrenophora teres was at least 80%. Moreover, the inhibition at 0.002 % strength in [5] is at least 80%. The same compound gave an inhibition at 0.002 % strength in the data set with Rhizoctonia solani of at least 50%. The inhibition at 0.02 % strength in data set [6] is at least 50%.

Take `Cn1cc(C(=O)N2CCCC2Cc2c(Cl)cccc2Cl)c(C(F)F)n1` (centres unmarked) [Compound 1.110, [2-(2,6-dichloro-benzyl)-pyrrolidin-1-yl]-(3-difluoromethyl-1-methyl-1H-pyrazol-4-yl)-methanone]: the inhibition at 0.002 % strength (in the data set with Septoria tritici; in [5]) was at least 80% throughout. In addition, the values for the inhibition at 0.02 % strength (in data set [2]; with Pyrenophora teres) were at least 50% and at least 80%, respectively.

As to `Cn1cc(C(=O)N2CCC[C@H]2C(F)c2ccc(Cl)cc2)c(C(F)F)n1` (stereo partly drawn) [Compound 1.215, {(S)-2-[(4-chlorophenyl)-fluoro-methyl]-pyrrolidin-1-yl}-(3-difluoromethyl-1-methyl-1H-pyrazol-4-yl)-methanone], the inhibition at 0.002 % strength (in the data set with Septoria tritici; in [5]) was at least 80% throughout. In addition, the inhibition at 0.02 % strength in the data set on Pyrenophora teres was at least 80%; in [6] it was at least 50%.

On to `Cn1cc(C(=O)N2CCC[C@H]2C(=O)c2ccc(Cl)cc2)c(C(F)F)n1` [Compound 1.259, (4-chloro-phenyl)-[(S)-1-(3-difluoromethyl-1-methyl-1H-pyrazole-4-carbonyl)-pyrrolidin-2-yl]-methanone], for which, in the data set with Pyrenophora teres, the inhibition at 0.02 % strength was at least 50%.
